Experimental findings from US20230310356A1, “COMPOSITION FOR PREVENTING, AMELIORATING, OR TREATING BRAIN DAMAGE AND MILD COGNITIVE IMPAIRMENT COMPRISING GLUTAMINE AS EFFECTIVE COMPONENT” (INDUSTRY-ACADEMIC COOPERATION FOUNDATION GYEONGSANG …, priority 2020, published 2023) are described below.

Common to all, as to format: in vivo, mouse
The test system of one assay is iNOS. In words: Double-IHC protein expression after CIS and glutamine supplementation: iNOS. The settings on record: microglial cells in infralimbic cortex and hippocampal CA1 region; glutamine supplementation diet vs stress group. The procedure: (§1) Control (CTL) is a group which received normal diet (common diet with nutritional balance) without any stress, CTL+Gln group is a normal diet group supplemented with glutamine (150 mg/kg of feed) and without any stress, STR is a normal diet group under stress, and STR+Gln group is a normal diet group supplemented with glutamine (150 mg/kg of feed) under stress. The stress group (STR) was individually brought by force to a restrainer for 2 hours every day (i.e., between 2 PM and 4 PM) so that the animals are applied with chronic immobilization stress for 15 days. To determine the specific changes in the brain tissues after glutamine supplementation, double staining was carried out with a cell marker so that the proteins related to a change in ROS/RNS content (i.e., iNOS; nNOS; and p47phox and p67phox as a subunit of NOX) with cell markers are analyzed by double-IHC (immunohistochemistry). Twenty-four hours after applying the last stress, the mouse was anesthetized with avertin, and perfused with PBS (pH 7.4) and 4% formaldehyde. After that, the brain was removed, fixed, and cut to a thickness with 40 μm. […]

Assay [1] relates to C57BL/6 male mice applied with chronic immobilization stress. In words: Behavior analysis by ORT and OLT after CIS and glutamine supplementation. The settings on record: STR+Gln vs STR; glutamine 150 mg/kg of feed, after 15 days stress. How it is done: Control (CTL) is a group which received normal diet (common diet with nutritional balance) without any stress, CTL+Gln group is a normal diet group supplemented with glutamine (150 mg/kg of feed) and without any stress, STR is a normal diet group under stress, and STR+Gln group is a normal diet group supplemented with glutamine (150 mg/kg of feed) under stress. The stress group (STR) was individually brought by force to a restrainer for 2 hours every day (i.e., between 2 PM and 4 PM) so that the animals are applied with chronic immobilization stress for 15 days. By using the cohorts of Example 1, behavior analysis was carried out. After applying the stress for 15 days, behavior analysis was immediately carried out. ORT includes three separate sessions, i.e., habituation, familiarization, and test. During 2 days of the habituation, the animals were allowed to stay in an empty open space for 10 minutes a day. After the habituation, they were subjected to familiarization by placing two identical objects in the open space. Mice of each test group were allowed to explore freely the object for 10 minutes. […] Discrimination index (DI) in ORT was then calculated according to the following formula (1). […] Discrimination index (DI) in OLT was then calculated according to the following formula (2). […]

The next assay relates to p47phox. As to the kind of experiment: Double-IHC protein expression after CIS and glutamine supplementation: p47phox. The settings on record: microglial cells in infralimbic cortex and hippocampal CA1 region; glutamine supplementation diet vs stress group. How it is done:
as §1

The test system of assay [2] is stratum pyramidale CA1 in hippocampus. As to the kind of experiment: Morphological change in hippocampus (Nissl staining, width of stratum pyramidale CA1) after CIS and glutamine supplementation. The following applies: STR+Gln vs STR; glutamine 150 mg/kg of feed. The procedure:
Control (CTL) is a group which received normal diet (common diet with nutritional balance) without any stress, CTL+Gln group is a normal diet group supplemented with glutamine (150 mg/kg of feed) and without any stress, STR is a normal diet group under stress, and STR+Gln group is a normal diet group supplemented with glutamine (150 mg/kg of feed) under stress. The stress group (STR) was individually brought by force to a restrainer for 2 hours every day (i.e., between 2 PM and 4 PM) so that the animals are applied with chronic immobilization stress for 15 days. Any morphological change in hippocampus caused by the application of chronic immobilization stress and glutamine supplementation was determined by brain tissue staining of hippocampal region. Specifically, a section (i.e., brain tissue specimen) obtained after mounting for 5 minutes in 0.1% cresyl violet which has been dissolved in 0.2% acetic acid followed by air-drying was stained. Stained section was washed, subsequently immersed for 30 seconds in 80% (v/v) ethanol, again immersed for 30 seconds in 90% (v/v) ethanol, and again immersed twice for 30 seconds in 95% (v/v) ethanol. It was again immersed twice for 30 seconds in 100% (v/v) ethanol for dehydration. […]

As to `NC(=O)CC[C@H](N)C(=O)O` [glutamine], the “expression amount of iNOS” value in the assay on iNOS is “statistically significant decrement”. In addition, in assay [1], the “discrimination index (DI) in OLT” value is given as “higher DI” and the “discrimination index (DI) in ORT” value was “higher DI”. Besides, the “expression amount of p47phox” value in the assay on p47phox is “statistically significant decrement”. In addition, in assay [2], the “width of CA1-SP (stratum pyramidale CA1)” value is on record as “restored”.
